Species: Rattus norvegicus
Experiment: Open TG-GATES - Regimen: Single
Type: toxicity, organism-based, Sprague-Dawley
Set-up: regimen Single, gender Male, age 6 weeks
Conditions: in vivo, po, 30 mg/kg, route gavage, dose level Low; for APTT / Bas / Eos / Fbg / Hb / Ht / Lym / MCH / MCHC / MCV / Mono / Neu / PT / Plat / RBC / Ret / WBC: tissue Blood; for KIDNEY_L / KIDNEY_R / KIDNEY_TOTAL: tissue Kidney; for LIVER: tissue Liver; for A/G / ALP / ALT / AST / BUN / CRE / Ca / Cl / DBIL / GLC / IP / K / LDH / Na / PL / RALB / TBIL / TC / TG / TP / gamma-GTP: tissue Plasma

SMILES: CCc1oc2ccccc2c1C(=O)c1cc(I)c(O)c(I)c1 [BENZIODARONE]
- TERMINAL_BW (3 h): 212.2 g
- APTT (3 h): 16.6 s
- Bas (3 h): 0%
- Eos (3 h): 1%
- Fbg (3 h): 202.4 mg/dL
- Hb (3 h): 14 g/dL
- Ht (3 h): 41.5%
- Lym (3 h): 74.4%
- MCH (3 h): 21.7 pg
- MCHC (3 h): 33.8%
- MCV (3 h): 64.3 fL
- Mono (3 h): 10%
- Neu (3 h): 14.8%
- PT (3 h): 12 s
- Plat (3 h): 117.6 x10_4/uL
- RBC (3 h): 645.8 x10_4/ul
- Ret (3 h): 8.1%
- WBC (3 h): 97.8 x10_2/uL
- KIDNEY_L (3 h): 1 g
- KIDNEY_R (3 h): 1 g
- KIDNEY_TOTAL (3 h): 2 g
- LIVER (3 h): 10 g
- A/G (3 h): 2.1
- ALP (3 h): 939.2 IU/L
- ALT (3 h): 33.8 IU/L
- AST (3 h): 66.6 IU/L
- BUN (3 h): 11 mg/dL
- CRE (3 h): 0.5 mg/dL
- Ca (3 h): 10.6 mg/dL
- Cl (3 h): 103.4 meq/L
- DBIL (3 h): 0 mg/dL
- GLC (3 h): 192.8 mg/dL
- IP (3 h): 9.7 mg/dL
- K (3 h): 4.4 meq/L
- LDH (3 h): 109.6 IU/L
- Na (3 h): 141 meq/L
- PL (3 h): 131.2 mg/dL
- RALB (3 h): 3.7 g/dL
- TBIL (3 h): 0.4 mg/dL
- TC (3 h): 73 mg/dL
- TG (3 h): 56.8 mg/dL
- TP (3 h): 5.4 g/dL
- gamma-GTP (3 h): 2 IU/L
- TERMINAL_BW (6 h): 213.4 g
- APTT (6 h): 16.4 s
- Bas (6 h): 0%
- Eos (6 h): 1%
- Fbg (6 h): 218.2 mg/dL
- Hb (6 h): 13.7 g/dL
- Ht (6 h): 41%
- Lym (6 h): 82%
- MCH (6 h): 21.9 pg
- MCHC (6 h): 33.4%
- MCV (6 h): 65.6 fL
- Mono (6 h): 7.8%
- Neu (6 h): 9.8%
- PT (6 h): 12 s
- Plat (6 h): 108.5 x10_4/uL
- RBC (6 h): 625.4 x10_4/ul
- Ret (6 h): 10.8%
- WBC (6 h): 102.6 x10_2/uL
- KIDNEY_L (6 h): 1 g
- KIDNEY_R (6 h): 1 g
- KIDNEY_TOTAL (6 h): 1.9 g
- LIVER (6 h): 9.8 g
- A/G (6 h): 2.2
- ALP (6 h): 728.8 IU/L
- ALT (6 h): 31 IU/L
- AST (6 h): 65.6 IU/L
- BUN (6 h): 11.8 mg/dL
- CRE (6 h): 0.5 mg/dL
- Ca (6 h): 10.7 mg/dL
- Cl (6 h): 105 meq/L
- DBIL (6 h): 0.03 mg/dL
- GLC (6 h): 183.4 mg/dL
- IP (6 h): 9.8 mg/dL
- K (6 h): 4.6 meq/L
- LDH (6 h): 105.2 IU/L
- Na (6 h): 141.6 meq/L
- PL (6 h): 130.6 mg/dL
- RALB (6 h): 3.7 g/dL
- TBIL (6 h): 0.3 mg/dL
- TC (6 h): 76.6 mg/dL
- TG (6 h): 55.2 mg/dL
- TP (6 h): 5.4 g/dL
- gamma-GTP (6 h): 1.8 IU/L
- TERMINAL_BW (9 h): 210.3 g
- APTT (9 h): 17.9 s
- Bas (9 h): 0%
- Eos (9 h): 1%
- Fbg (9 h): 203.2 mg/dL
- Hb (9 h): 13.5 g/dL
- Ht (9 h): 40.3%
- Lym (9 h): 76.8%
- MCH (9 h): 21.7 pg
- MCHC (9 h): 33.6%
- MCV (9 h): 64.5 fL
- Mono (9 h): 8%
- Neu (9 h): 14.6%
- PT (9 h): 12 s
- Plat (9 h): 110.8 x10_4/uL
- RBC (9 h): 624.8 x10_4/ul
- Ret (9 h): 8.2%
- WBC (9 h): 78 x10_2/uL
- KIDNEY_L (9 h): 0.9 g
- KIDNEY_R (9 h): 1 g
- KIDNEY_TOTAL (9 h): 1.9 g
- LIVER (9 h): 9 g
- A/G (9 h): 2.2
- ALP (9 h): 748.4 IU/L
- ALT (9 h): 28.8 IU/L
- AST (9 h): 58.6 IU/L
- BUN (9 h): 11.4 mg/dL
- CRE (9 h): 0.4 mg/dL
- Ca (9 h): 10.4 mg/dL
- Cl (9 h): 105.4 meq/L
- DBIL (9 h): 0.086 mg/dL
- GLC (9 h): 198 mg/dL
- IP (9 h): 10.4 mg/dL
- K (9 h): 4.5 meq/L
- LDH (9 h): 88.4 IU/L
- Na (9 h): 142.8 meq/L
- PL (9 h): 129.2 mg/dL
- RALB (9 h): 3.7 g/dL
- TBIL (9 h): 0.3 mg/dL
- TC (9 h): 67.6 mg/dL
- TG (9 h): 48.6 mg/dL
- TP (9 h): 5.5 g/dL
- gamma-GTP (9 h): 0.8 IU/L
- TERMINAL_BW (24 h): 226.7 g
- APTT (24 h): 17.3 s
- Bas (24 h): 0%
- Eos (24 h): 1%
- Fbg (24 h): 206.6 mg/dL
- Hb (24 h): 13.4 g/dL
- Ht (24 h): 39.2%
- Lym (24 h): 76.4%
- MCH (24 h): 22.1 pg
- MCHC (24 h): 34.2%
- MCV (24 h): 64.8 fL
- Mono (24 h): 7.4%
- Neu (24 h): 15%
- PT (24 h): 11.9 s
- Plat (24 h): 117.8 x10_4/uL
- RBC (24 h): 605 x10_4/ul
- Ret (24 h): 8.1%
- WBC (24 h): 94 x10_2/uL
- KIDNEY_L (24 h): 1 g
- KIDNEY_R (24 h): 1 g
- KIDNEY_TOTAL (24 h): 2 g
- LIVER (24 h): 11.1 g
- A/G (24 h): 2.1
- ALP (24 h): 882.8 IU/L
- ALT (24 h): 34.6 IU/L
- AST (24 h): 70.8 IU/L
- BUN (24 h): 17.4 mg/dL
- CRE (24 h): 0.6 mg/dL
- Ca (24 h): 10.6 mg/dL
- Cl (24 h): 104.6 meq/L
- DBIL (24 h): 0.006 mg/dL
- GLC (24 h): 197.2 mg/dL
- IP (24 h): 7.4 mg/dL
- K (24 h): 4.7 meq/L
- LDH (24 h): 95.8 IU/L
- Na (24 h): 141 meq/L
- PL (24 h): 138.2 mg/dL
- RALB (24 h): 3.8 g/dL
- TBIL (24 h): 0.3 mg/dL
- TC (24 h): 73.2 mg/dL
- TG (24 h): 81.6 mg/dL
- TP (24 h): 5.6 g/dL
- gamma-GTP (24 h): 1 IU/L
